Measurements from patent publication US20220274979A1 (Bayer Pharma Aktiengesellschaft, priority 2018, published 2022).

Biological target: T1, Epidermal Growth Factor Receptor (EGFR) (Homo sapiens, UniProt P00533)
T1 construct: purchased Sigma-Aldrich E3641
Assay: EGFR kinase assay (TR-FRET)
Format: biochemical
Conditions: 10 μM ATP; read-out: EGFR kinase inhibition IC50
From the text: EGFR inhibitory activity of compounds of the present invention was quantified employing the TR-FRET based EGFR assay as described in the following paragraphs.
Epidermal Growth Factor Receptor (EGFR) affinity purified from human carcinoma A431 cells (Sigma-Aldrich, # E3641) was used as kinase. As substrate for the kinase reaction the biotinylated peptide biotin-Ahx-[…] (SEQ ID NO: 8, C-terminus in amid form) was used which can be purchased e.g. form the company Biosyntan GmbH (Berlin-Buch, Germany).
For the assay 50 nL of a 100 fold concentrated solution of the test compound in DMSO was pipetted into a black low volume 384 well microtiter plate (Greiner Bio-One, Frickenhausen, Germany), 2 μL of a solution of EGFR in aqueous assay buffer [50 mM Hepes/HCl pH 7.0, 1 mM MgCl2, 5 mM MnCl2, 0.5 mM activated sodium ortho-vanadate, 0.005% (v/v) Tween-20]were added and the mixture was incubated for […] at 22° C. to allow pre-binding of the test compounds to the enzyme before the start of the kinase reaction. Then the kinase reaction was started by the addition of 3 μL of a solution of adenosine-tri-phosphate (ATP, 16.7 μM=>final conc. in the 5 μL assay volume is 10 μM) and substrate (1.67 μM =>final conc. in the 5 μL assay volume is 1μM) in assay buffer and the resulting mixture was incubated for a reaction time of […] at 22° C. The concentration of EGFR was adjusted depending of the activity of the enzyme lot and was chosen appropriate to have the assay in the linear range, typical concentration were about 3 U/ml. The reaction was stopped by the addition of 5 μl of a solution of HTRF detection reagents (0.1 μM streptavidine-XL665 [Cis Biointernational]and 1 nM PT66-Tb-Cryptate, an terbium-cryptate labelled anti-phospho-tyrosine antibody from Cis Biointernational [instead of the PT66-Tb-cryptate PT66-Eu-Chelate from Perkin Elmer can also be used]) in an aqueous EDTA-solution (80 mM EDTA, 0.2% (w/v) bovine serum albumin in 50 mM HEPES pH 7.5).
The resulting mixture was incubated 1 h at 22° C. to allow the binding of the biotinylated phosphorylated peptide to the streptavidine-XL665 and the PT66-Eu-Chelate. Subsequently the amount of phosphorylated substrate was evaluated by measurement of the resonance energy transfer from the PT66-Tb-Cryptate to the streptavidine-XL665. Therefore, the fluorescence emissions at 620 nm and 665 nm after excitation at 337 nm were measured in a HTRF reader, e.g. a Pherastar (BMG Labtechnologies, Offenburg, Germany) or a Viewlux (Perkin-Elmer). The ratio of the emissions at 665 nm and at […] was taken as the measure for the amount of phosphorylated substrate.

T1 sequence (P00533 25-1210): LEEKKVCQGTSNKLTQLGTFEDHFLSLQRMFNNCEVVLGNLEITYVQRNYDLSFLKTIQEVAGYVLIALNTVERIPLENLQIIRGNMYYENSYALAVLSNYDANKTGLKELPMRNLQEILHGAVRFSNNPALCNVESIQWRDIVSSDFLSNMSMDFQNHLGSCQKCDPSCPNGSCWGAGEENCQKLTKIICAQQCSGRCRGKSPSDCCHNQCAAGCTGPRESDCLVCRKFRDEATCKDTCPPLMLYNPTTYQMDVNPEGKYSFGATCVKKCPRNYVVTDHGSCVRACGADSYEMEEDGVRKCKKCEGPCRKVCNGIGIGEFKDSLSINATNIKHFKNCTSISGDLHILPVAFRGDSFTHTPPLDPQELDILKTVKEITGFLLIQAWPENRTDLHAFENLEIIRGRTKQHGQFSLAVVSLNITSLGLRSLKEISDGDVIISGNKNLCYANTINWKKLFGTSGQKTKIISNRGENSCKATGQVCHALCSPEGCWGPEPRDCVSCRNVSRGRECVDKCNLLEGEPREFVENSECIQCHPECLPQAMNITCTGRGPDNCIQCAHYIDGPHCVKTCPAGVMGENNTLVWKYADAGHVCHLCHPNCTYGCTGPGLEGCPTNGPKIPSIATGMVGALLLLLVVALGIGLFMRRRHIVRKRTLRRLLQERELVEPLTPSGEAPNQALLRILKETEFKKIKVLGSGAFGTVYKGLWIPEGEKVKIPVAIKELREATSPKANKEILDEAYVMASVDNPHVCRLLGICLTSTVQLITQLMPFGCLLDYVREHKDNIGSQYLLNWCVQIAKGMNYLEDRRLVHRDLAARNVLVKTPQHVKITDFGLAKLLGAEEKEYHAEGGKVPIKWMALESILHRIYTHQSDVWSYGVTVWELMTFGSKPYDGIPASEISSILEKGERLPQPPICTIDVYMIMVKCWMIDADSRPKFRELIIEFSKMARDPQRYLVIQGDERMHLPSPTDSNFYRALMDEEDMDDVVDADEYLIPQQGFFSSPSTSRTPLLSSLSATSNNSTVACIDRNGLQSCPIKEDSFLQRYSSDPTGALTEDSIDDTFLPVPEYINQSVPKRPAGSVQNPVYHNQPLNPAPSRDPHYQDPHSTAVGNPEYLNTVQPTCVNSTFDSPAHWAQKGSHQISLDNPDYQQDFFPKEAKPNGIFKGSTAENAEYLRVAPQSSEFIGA

Compound | IC50
CC(=O)NC1CCN(c2cc3c(N[C@H](C)c4cccc(Br)c4)nc(C)nc3cn2)C1 (mixture of isomers) [Example 42, N-[1-(4-{[(1R)-1-(3-bromophenyl)ethyl]amino}-2-methylpyrido[3,4-d]pyrimidin-6-yl)pyrrolidin-3-yl]acetamide] | > 20 µM
Cc1nc(NC(C)c2ccc(-c3ccccc3CN(C)C)s2)c2cc(C3CCN(C)C3=O)ncc2n1 (mixture of isomers) [Example 69, 3-(4-{[1-(5-{2-[(dimethylamino)methyl]phenyl}thiophen-2-yl)ethyl]amino}-2-methylpyrido[3,4-d]pyrimidin-6-yl)-1-methylpyrrolidin-2-one] | > 20 µM
Cc1nc(NC(C)c2ccc(-c3ccccc3CN(C)C)s2)c2cc(C3(O)CCN(C)C3=O)ncc2n1 (mixture of isomers) [Example 85, 3-(4-{[1-(5-{2-[(dimethylamino)methyl]phenyl}thiophen-2-yl)ethyl]amino}-2-methylpyrido[3,4-d]pyrimidin-6-yl)-3-hydroxy-1-methylpyrrolidin-2-one] | > 20 µM
CCOc1cc2c(NC(C)c3cccc4sccc34)nc(C)nc2cn1 (stereo not shown) [Example 3, N-[1-(1-benzothiophen-4-yl)ethyl]-6-ethoxy-2-methylpyrido[3,4-d]pyrimidin-4-amine] | > 20 µM
COc1cc2c(NC(C)c3cccc4sccc34)nc(C)nc2cn1 (stereo not shown) [Example 4, N-[1-(1-benzothiophen-4-yl)ethyl]-6-methoxy-2-methylpyrido[3,4-d]pyrimidin-4-amine] | > 20 µM
CCOc1cc2c(N[C@H](C)c3cccc(Br)c3)nc(C)nc2cn1 [Example 5, N-[(1R)-1-(3-bromophenyl)ethyl]-6-ethoxy-2-methylpyrido[3,4-d]pyrimidin-4-amine] | > 20 µM
CCOc1cc2c(N[C@H](C)c3cccc(Cl)c3)nc(C)nc2cn1 [Example 6] | > 20 µM
CCOc1cc2c(N[C@H](C)c3cccc(S(C)(=O)=O)c3)nc(C)nc2cn1 [Example 7, 6-ethoxy-2-methyl-N-{(1R)-1-[3-(methylsulfonyl)phenyl]ethyl}pyrido[3,4-d]pyrimidin-4-amine] | > 20 µM
COc1cc2c(N[C@H](C)c3ccc(F)c(Cl)c3)nc(C)nc2cn1 [Example 8] | > 20 µM
Cc1nc(N[C@H](C)c2ccc(F)cc2)c2cc(F)ncc2n1 [Example 9] | > 20 µM
Cc1nc(N[C@H](C)c2ccc(F)cc2)c2cc(OCC3CCOCC3)ncc2n1 [Example 11, N-[1R)-1-(4-fluorophenypethyl]-2-methyl-6-(tetrahydro-2H-pyran-4-ylmethoxy)-pyrido[3,4-d]pyrimidin-4-amine] | > 20 µM
COc1cc2c(N[C@H](C)c3ccc(F)c(C4CC4)c3)nc(C)nc2cn1 [Example 12] | > 20 µM
CCOc1cc2c(N[C@H](C)c3ccc(Br)cc3)nc(C)nc2cn1 [Example 13, N-[(1R)-1-(4-bromophenyl)ethyl]-6-ethoxy-2-methylpyrido[3,4-d]pyrimidin-4-amine] | > 20 µM
COc1cc2c(NC(C)c3cccc4c3cnn4C)nc(C)nc2cn1 (stereo not shown) [Example 14, 6-methoxy-2-methyl-N-[1-(1-methyl-1H-indazol-4-yl)ethyl]pyrido[3,4-d]pyrimidin-4-amine] | > 20 µM
Cc1nc(N[C@H](C)c2ccc(F)cc2)c2cc(OC(C)C)ncc2n1 [Example 15] | > 20 µM
COc1cc2c(NC(C)c3cccc4nn(C)cc34)nc(C)nc2cn1 (stereo not shown) [Example 17, 6-methoxy-2-methyl-N-[1-(2-methyl-2H-indazol-4-yl)ethyl]pyrido[3,4-d]pyrimidin-4-amine] | > 20 µM
CCOc1cc2c(N[C@H](C)c3ccc(C#N)cc3)nc(C)nc2cn1 [Example 18, 4-{(1R)-1-[(6-ethoxy-2-methylpyrido[3,4-d]pyrimidin-4-yl)amino]ethyl}benzonitrile] | > 20 µM
Cc1nc(N[C@H](C)c2cccc(Br)c2)c2nc(OCc3ccccc3)ncc2n1 [Example 20, 6-(benzyloxy)-N-[(1R)-1-(3-bromophenyl)ethyl]-2-methylpyrimido[5,4-d]pyrimidin-4-amine] | > 20 µM
Cc1nc(N[C@H](C)c2cccc(Br)c2)c2nc(N(C)C)ncc2n1 [Example 21] | > 20 µM

Compound | IC50
Cc1nc(N[C@H](C)c2cccc(Br)c2)c2nc(N3CCOCC3)ncc2n1 [Example 22, N-[(1R)-1-(3-bromophenyl)ethyl]-2-methyl-6-(morpholin-4-yl)pyrimido[5,4-d]pyrimidin-4-amine] | > 20 µM
CCOc1ncc2nc(C)nc(N[C@H](C)c3cccc(Br)c3)c2n1 [Example 23, N-[(1R)-1-(3-bromophenyl)ethyl]-6-ethoxy-2-methylpyrimido[5,4-d]pyrimidin-4-amine] | > 20 µM
COc1ncc2nc(C)nc(N[C@H](C)c3cccc(Br)c3)c2n1 [Example 24, N-[(1R)-1-(3-bromophenyl)ethyl]-6-methoxy-2-methylpyrimido[5,4-d]pyrimidin-4-amine] | > 20 µM
Cc1nc(N[C@H](C)c2cccc(Br)c2)c2nc(Oc3ccccc3)ncc2n1 [Example 25, N-[(1R)-1-(3-bromophenyl)ethyl]-2-methyl-6-phenoxypyrimido[5,4-d]pyrimidin-4-amine] | > 20 µM
COCCOc1ncc2nc(C)nc(N[C@H](C)c3cccc(Br)c3)c2n1 [Example 26, N-[(1R)-1-(3-bromophenyl)ethyl]-6-(2-methoxyethoxy)-2-methylpyrimido[5,4-d]pyrimidin-4-amine] | > 20 µM
Cc1nc(N[C@H](C)c2cccc(Br)c2)c2nc(N3CCOCC3)ccc2n1 [Example 27, N-[(1R)-1-(3-bromophenyl)ethyl]-2-methyl-6-(morpholin-4-yl)pyrido[3,2-d]pyrimidin-4-amine] | > 20 µM
COc1ccc2nc(C)nc(N[C@H](C)c3cccc(Br)c3)c2n1 [Example 28, N-[(1R)-1-(3-bromophenyl)ethyl]-6-methoxy-2-methylpyrido[3,2-d]pyrimidin-4-amine] | > 20 µM
CCOc1ccc2nc(C)nc(N[C@H](C)c3cccc(Br)c3)c2n1 [Example 29, N-[(1R)-1-(3-bromophenyl)ethyl]-6-ethoxy-2-methylpyrido[3,2-d]pyrimidin-4-amine] | > 20 µM
COCCOc1ccc2nc(C)nc(N[C@H](C)c3cccc(Br)c3)c2n1 [Example 30, N-[(1R)-1-(3-bromophenyl)ethyl]-6-(2-methoxyethoxy)-2-methylpyrido[3,2-d]pyrimidin-4-amine] | > 20 µM
Cc1nc(N[C@H](C)c2cccc(Br)c2)c2nc(N(C)C)ccc2n1 [Example 31] | > 20 µM
Cc1nc(N[C@H](C)c2cccc(Br)c2)c2nc(Oc3ccccc3)ccc2n1 [Example 32, N-[(1R)-1-(3-bromophenyl)ethyl]-2-methyl-6-phenoxypyrido[3,2-d]pyrimidin-4-amine] | > 20 µM
Cc1nc(N[C@H](C)c2cccc(Br)c2)c2nc(OCc3ccccc3)ccc2n1 [Example 33, 6-(benzyloxy)-N-[(1R)-1-(3-bromophenyl)ethyl]-2-methylpyrido[3,2-d]pyrimidin-4-amine] | > 20 µM
Cc1nc(N[C@H](C)c2cccc(Br)c2)c2cc(F)ncc2n1 [Example 34, N-[(1R)-1-(3-bromophenyl)ethyl]-6-fluoro-2-methylpyrido[3,4-d]pyrimidin-4-amine] | > 20 µM
Cc1nc(NC(C)c2ccc(Br)s2)c2cc(F)ncc2n1 (stereo not shown) [Example 35] | > 20 µM
CNCc1ccccc1-c1ccc(C(C)Nc2nc(C)nc3cnc(F)cc23)s1 (stereo not shown) [Example 36, 6-fluoro-2-methyl-N-[1-(5-{2-[(methylamino)methyl]phenyl}thiophen-2-yl)ethyl]pyrido[3,4-d]pyrimidin-4-amine] | > 20 µM
CNCc1ccccc1-c1ccc(C(C)Nc2nc(C)nc3cnc(Oc4ccc(N5CCCC5=O)cc4)cc23)s1 (stereo not shown) [Example 38, 1-{4-[(2-methyl-4-{[1-(5-{2-[(methylamino)methyl]phenyl}thiophen-2-yl)ethyl]amino}pyrido[3,4-d]pyrimidin-6-yl)oxy]phenyl}pyrrolidin-2-one] | > 20 µM
Cc1nc(N[C@H](C)c2cccc(Br)c2)c2cc(NCCN3CCOCC3)ncc2n1 [Example 39] | > 20 µM
Cc1nc(N[C@H](C)c2cccc(Br)c2)c2cc(Oc3cccc(O)c3)ncc2n1 [Example 40, 3-[(4-{[(1R)-1-(3-bromophenyl)ethyl]amino}-2-methylpyrido[3,4-d]pyrimidin-6-yl)oxy]phenol] | > 20 µM
